{
  "source": "patent US7271239B2",
  "about": "“D-isomers of antimicrobial peptide” (The Research Foundation of State University of New York, priority 2004, dated 2007)",
  "key": {"HOK-16B cells": {"system": "HOK-16B cells", "experiment": "MTS cell viability assay", "type": "cell-based, human", "experimental": "FIG. 6. Effect of peptides on viability of (A) HOK-16B cells and (B) KB cells. The toxic effect of the compounds on the cells was determined by calorimetric assay using a CellTiter 96 AQueous One Solution cell proliferation assay (MTS) kit, as described in the text. Briefly, the cells were grown to about 80% confluence, harvested, washed, resuspended in KGM, and dispensed into a 96-well microtiter plate. They were then exposed to different concentrations of peptides or amphotericin B at 37° C. and 5% CO2 for 1.5 h. MTS agent was then added to each well, and the cells were further incubated for 4 h. Absorbance at 490 nm was then measured using a microplate reader. MTS reduction is an indication of cell viability. The viability is expressed as relative absorbance (percentage of no-agent control). Data represent the average and standard deviation of results from two independent experiments.\nCell culture. The HOK-16B cell line (originated from primary normal human keratinocytes) was kindly provided by No-Hee Park, UCLA School of Dentistry. The KB cell line was obtained from the American Type Culture Collection (CLL-17). […]\nMTS cell viability assay. The toxic effect of the compounds on the cells was determined by calorimetric assay using a CellTiter 96 AQueous One Solution cell proliferation assay (MTS) kit (Promega, Wis.). […] Absorbance at 490 nm was then measured using a microplate reader. […]"}, "C. albicans strain DIS": {"system": "C. albicans strain DIS", "type": "in vivo, mice ICR strain", "details": "for Log10 cfu/ml (Mean + S.D.), Initial infection: before treatment (baseline)", "experimental": "A previously described protocol was adopted (14). Mice were immunosuppressed with two subcutaneous injections of prednisolone at a dose of 100 mg/kg body weight 1 day prior to and 3 days after the infection with C. albicans. Tetracycline hydrochloride in drinking water at a concentration of 0.83 mg/ml was given to mice beginning 1 day before infection. Mice were anesthetized by intramuscular injection with 60 μl of 2 mg/ml chlorpromazine chloride, using a dose of 10 mg/kg body weight of mice. While under anesthesia, a small cotton ball soaked in 0.1 ml aliquot of C. albicans cell suspension (2.5×10^6 cells) was used to swab the entire oral cavity of the anesthetized mice.\nVisual evaluation was done by carefully extending the tongue of randomly picked mice using blunt-end forceps, while the mice were under isoflurane sedation. Presence of thick, white curd-like patches indicated candidal infection. At day 3 post-infection, all animals were examined for evidence oral candidal infection by microbiological evaluation. The entire oral cavity of anesthetized mice was swabbed using a sterile calcium alginate disposable swab (Fisher Scientific), dampened with sterile PBS. Cells were then released from the swab into 1 ml PBS. Serial 10-fold dilutions were plated on SDA plates supplemented with streptomycin (30 μg/ml). Plates were incubated for 24 h at 37° C. and yeast cell count expressed as log10 of cfu/ml.\nTongues from sacrificed animals were used for histological studies. They were fixed in 10% formalin and embedded in paraffin. Serial five-μm sections were cut from the paraffin block and stained with periodic acid-Schiff (PAS) reagent for detection of C. albicans.\nMice were randomly divided into various treatment groups with 8 mice per group. Antifungal agents were employed on an equimolar basis, and included amphotericin B (1.75%), clotrimazole (0.66%), MUC7 12-mer (RKSYKCLHKRCR—SEQ ID NO:1) (L; 3%), MUC7 12-mer (D; 3%), MUC7 12-mer (D; 3%) containing Na2EDTA (1 mM), MUC7 12-mer (L; 3%) containing protease inhibitor cocktail (PIC) (1%), and Hsn5 12-mer (AKRHHGYKRKFH—SEQ ID NO:2) (3%). They were all emulsified in Pluronic F127, (20% lipoil), a polymer of polyoxyethylene and polyoxypropylene (non-ionic surfactant). Animals were anesthetized using isoflurane; while sedated, about 30 to 40 μl of the antifungal emulsion was applied on the tongue and spread throughout oral cavity. The treated mice were under sedation for additional 5 min under isoflurane. Animals were not given access to food and water for 1 h following the application.\nFungal burden was re-evaluated quantitatively after 3 and 6 days of treatment, using the same technique as the one used for initial evaluation. Randomly picked mice from each group was subjected to histopathological evaluation, after 6 days of treatment. Blood from randomly sacrificed mice from each treatment group was analyzed for any changes in the serum liver (AST, ALT, ALP etc.) and kidney enzymes (BUN, glucose, creatinine etc) levels.\nStatistical analysis was performed using a significance level set at 0.05 (α) and a significant group size (n=8). Initial infection and antifungal treatment efficacy were determined using analysis of variance (ANOVA), expressed as log10 cfu, and Scheffe's multiple comparison test was used to determine the differences between various treatment groups."}, "[1]": {"details": "Experimental study I, topical oral application"}},
  "note": "Read-outs that look alike come from different tables or passages of the source.",
  "data": [
    {"compound": "C[C@@H]1[C@H](O)[C@@H](C)/C=C/C=C/C=C/C=C/C=C/C=C/C=C/[C@H](O[C@@H]2O[C@H](C)[C@@H](O)[C@H](N)[C@@H]2O)C[C@@H]2O[C@](O)(C[C@@H](O)C[C@@H](O)[C@H](O)CC[C@@H](O)C[C@@H](O)CC(=O)O[C@H]1C)C[C@H](O)[C@H]2C(=O)O", "note": "[Amphotericin B]", "values": [
      {"measurement": "IC50", "setting": "HOK-16B cells", "value": 100, "unit": "µM"},
      {"measurement": "Log10 cfu/ml (Mean + S.D.), Initial infection", "setting": "C. albicans strain DIS; Experimental study I, day 3 post-infection", "value": "4.52 ± 0.15", "unit": "Log10 cfu/ml"},
      {"measurement": "Log10 cfu/ml (Mean + S.D.), 3-days treatment", "setting": "C. albicans strain DIS; [1]", "value": "1.79 ± 1.16", "unit": "Log10 cfu/ml"},
      {"measurement": "Log10 cfu/ml (Mean + S.D.), 6-days treatment", "setting": "C. albicans strain DIS; [1]", "value": "0.75 ± 1.04", "unit": "Log10 cfu/ml"},
      {"measurement": "Log10 cfu/ml (Mean + S.D.), 3-days treatment", "setting": "C. albicans strain DIS; Experimental study II", "value": "1.23 ± 1.44", "unit": "Log10 cfu/ml"},
      {"measurement": "Log10 cfu/ml (Mean + S.D.), Initial infection", "setting": "C. albicans strain DIS; Experimental study II", "value": "4.26 ± 0.54", "unit": "Log10 cfu/ml"},
      {"measurement": "histopathological finding in tongue sections (C. albicans, PAS staining)", "setting": "C. albicans strain DIS; end of treatment", "value": "healthy tissue and absence of visible microorganisms"}
    ]}
  ]
}
